Laboratory results: US20250306034A1, “Detection of Liver Disease” (Owlstone Medical Limited, priority 2022, published 2025)

Assays:
[1] = target: AKR1B10 (Homo sapiens, UniProt O60218); test: Bioproduct production in A549 WT and AKR1B10 KO cells, headspace GC-MS; settings: for substrate of AKR1B10 (converted to 1-nonanol / trans-2-hexenol by this enzyme): WT versus AKR1B10 KO A549 cells
Description: We have tested conversion of these substrates to the respective bioproduct 1-nonanol, trans-2-hexenol, hexenol, benzyl alcohol, and nerol, in a cancer cell line overexpressing AKR1B10.
A549 lung cancer cells were targeted with a CRISP/Cas system to ablate the protein expression of AKR1B10. Specific sgRNA for the AKR1B10 gene were co-transfected in cells with SpCas9 using ribonucleoproteins (RNPs). Clonal cells were generated by using limiting dilution. […] Resulting protein extract for WT and AKR1B10 KO cells were analysed using the Jess system and samples were probed with an AKR1B10 specific antibody, and with an antibody against α-Tubulin as independent reporter.
5×10^4 cells/mL of WT or 3 AKR1B10 KO clone cells were seeded in 24-well plates using cell culture media and let adhere and proliferate for 48 hours to confluence. Then, they were treated with 30 μM nonanal or 10 µM trans-2-hexenal. […] Headspace analysis was performed by using Centri, coupled with a GC-MS Orbi-trap system. Peak identification of nonanal, 1-nonanol, trans-2-hexenal, and trans-2-hexenol, was performed by comparing the peak against reference standards.

[2] = Blood levels of bioproducts in NASH rat model (CDHFD vs normal diet); settings: for time after administration at which blood concentration increases / blood levels, CDHFD compared to ND rats: after oral 2-butanol 440 mg/Kg; for blood levels, CDHFD compared to ND rats: at 8 and 12 hours (480, 720 minutes)
Procedure: Blood samples were analysed using gas chromatography mass spectrometry (GC/-MS) or HPLC to measure metabolitic bioproducts benzoic acid, 3-hydroxy-2-butanone, 2-3-butanediol, and 2,3-pentanediol.
A total of 18 Wistar Han rats were acclimatized for 6 days. After that time, 9 rats remained on a normal diet, while 9 rats were switched to a choline deficient high fat diet (CDHFD) (L-Amino Acid Diet With 45 kcal % Fat With 0.1% Methionine, No Added Choline and 1% Cholesterol) (Research Diet, catalog #A16092003, https://researchdiets.com/en/formulas/a16092003). Rats had ad libitum access to food and water at all times unless differently specified. Body weight was measured every week.
Following 10 weeks of diet treatment, rats were randomised into groups each group composed of 3 healthy and 3 NASH rats for dosing with the different compounds.
Each group received an emulsion containing the compounds reported in table 1 at the indicated amount.
Each compound preparation was administered as an emulsion containing 15% Tween80 diluted in water to deliver the target amount in 5 mL/kg body weight. The emulsion was administered by oral gavage after the rats were fasted for 16 hours.
Blood samples were collected pre (0 min) and post compound administration at the following timepoints: 5 min, 15 min, 30 min, 1 h, 1.5 h, 2 h, 4 h, 8 h, 12 h, and 24 h.
At each time point, ˜200 μL blood samples were collected into EDTA-K2 tubes and placed on wet ice until centrifugation. Plasma was generated, from the blood samples, by centrifugation at approximately 4° C., 3,200 g for 5 min.
A total of 100 μL of plasma was collected respectively and transferred into Eppendorf tubes. Of these, 95 μL of plasma were spiked with 400 μL of internal standard in acetonitrile, vortexed for 30s and centrifuged for 15 min at 3220 g. A total of 100 μL of supernatant was used for compounds quantification, unless differently specified.
Response for each compound was normalized by the response of the internal standard, and absolute quantification was performed against a calibration curve.

[3] = Nonanal and 2-butanol washout in breath of volunteers; settings: three volunteers; swallowed emulsion with 500 mg of Nonanal and 100 mg of 2-butanol; GC-MS
Procedure: An analysis of nonanal and 2-butanol washout of breath samples collected from three volunteers investigated before and after the intake of 500 mg of Nonanal and 100 mg of 2-butanol was performed. Three breath collections have been performed per each volunteer.
Three Volunteers participated in this trial for 3 times. They swallowed an emulsion containing 500 mg of Nonanal and 100 mg of 2-butanol and their breath was collected at 8 different time points before and after the emulsion intake using the ReCIVA, a face mask containing tubes for breath collection, and storage of exhaled VOCs.
Appearance on breath and conversion of the probes to their bioproducts was measured using gas-chromatography mass-spectrometry (GC-MS).

[4] = test system: healthy and NASH hepatocytes; settings: for level of probe in presence of NASH and healthy hepatocytes compared with absence of hepatocytes: 50 ng/μL in culture medium, aliquots 0.5 to 24 hours
Description: Organ-on-a-chip containing healthy human hepatocytes and human hepatocytes treated to generate a model of a healthy or NASH liver disease were used in the following experiments. The Organ-on-a-chip containing healthy human hepatocytes are similar to the Organ-on-a-chip described above, but the experiment also included a model of NASH hepatocytes. The latter are obtained by treating healthy hepatocytes with Kupfer cells and hepatocytes stellate cells.
Primary human hepatocytes (PHHs), Kupffers cells (KCs), and hepatic stellate cells (HSCs) were seeded onto CN-Bio's PhysioMimix LC12 MPS culture plates at 6×10^5 cells for PHHs and 6×10^4 cells for HKCs and HSCs (necessary to induce the NASH phenotype) per well in CN-Bio's seeding medium. Throughout the experiment the cells were maintained at a medium flow rate of 1 μl/s. At days 4, 6, 8, 11, and 12 post seeding, medium aliquots were taken to measure LDH and albumin to assess cell health. At day 13 (24 hours post VOCs treatment), final medium collection for analysis was performed. Scaffolds were fixed in 4% formaldehyde for Oil Red O staining to assess lipid accumulation.
Primary hepatocytes were treated with 2-butanol and nonanal diluted in the hepatocytes culture medium at a concentration of 50 ng/μL. Aliquots of the culture medium were collected at 0.5, 1, 2, 4, 6, and 24 hours. The remaining medium-compound mix that was not added to the cells was considered as 0 timepoint reference. Headspace analysis was performed by using Centri, an automated system used to collect VOCs in the headspace, coupled with a GC-MS Orbi-trap system, a high-resolution mass spectrometer for detection and quantification of VOCs. Peak identification of 2-butanol, 2-butanone, nonanal, and 1-nonanol was performed by comparing the peak against a reference standard. A p-value<0.05 was considered as statistically significant.

[5] = test system: healthy human hepatocytes; test: Metabolism of VOCs by healthy human hepatocytes (organ-on-a-chip)
Procedure: Organ-on-a chip samples were used.
Organ-on-a chip is a three-dimensional hepatocytes culturing system developed by a company called CN-Bio Ltd. Aliquots of media spiked with VOCs and collected at different time points are analysed using CENTRI-GC-MS a system for VOCs headspace detection and quantification. The experiment contained samples from healthy hepatocytes in the culture medium exposed to 2-butanol, nonanal at one of the concentrations: 50, 10, 2 and 0 ng/μL, and the control which is the culture medium without hepatocytes containing 2-butanol, and nonanal of the same concentration.
System suitability test (SST) and […] standards check (0, 2, 10 and 50 ng/μL), were run in duplicate at the beginning, in the middle and at the end of the sequence to mitigate against the risk of an instrumental deviation.
Empty tubes were also run at the beginning, in the middle and at the end of the sequence to mitigate against the risk of a carryover 0.5 μL Internal standards (1000 ng/μL) were spiked into each sample prior to analysis.

[6] = after oral 2-pentanone 160 mg/Kg
[7] = hepatocytes treated with 2-butanol and nonanal at 50 ng/μL

Chain of AKR1B10 (O60218 whole entry): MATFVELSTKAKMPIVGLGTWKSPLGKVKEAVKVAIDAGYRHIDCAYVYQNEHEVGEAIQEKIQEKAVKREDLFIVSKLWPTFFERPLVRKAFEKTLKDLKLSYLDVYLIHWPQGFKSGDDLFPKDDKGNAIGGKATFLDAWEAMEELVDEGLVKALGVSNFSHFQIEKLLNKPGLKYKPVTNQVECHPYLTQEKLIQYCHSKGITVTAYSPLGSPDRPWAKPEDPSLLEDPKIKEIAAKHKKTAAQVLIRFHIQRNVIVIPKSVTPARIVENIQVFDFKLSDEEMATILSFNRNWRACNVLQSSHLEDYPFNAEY

## CCCCCCCCCO [1-nonanol]
[1]; human, 30 μM
  production of 1-nonanol, levels in WT compared to AKR1B10 KO cells: 3 times higher

## CC(O)C(C)O (centres unmarked) [2,3-butanediol]
[2]
  time after administration at which blood concentration increases: 240 min
  blood levels, CDHFD compared to ND rats: higher levels in CDHFD compared to ND rats

## CCC(O)C(C)O (centres unmarked) [2,3-pentanediol]
[2]; [6]
  blood levels, CDHFD rats compared to ND rats: higher in CDHFD rats compared to ND rats after 4 hours
  time after administration after which blood levels increased: 1 h

## CCC(C)O (centres unmarked) [2-butanol]
[3]
  detection in breath samples after emulsion intake: detected
[4]
  level of probe in presence of NASH and healthy hepatocytes compared with absence of hepatocytes: more marked reduction at 24 h
[5]; 50, 10, 2 and 0 ng/μL, healthy hepatocytes, headspace GC-MS
  level of probe over 24 hours in media alone and media with hepatocytes: a decrease both in media alone and media with hepatocytes

## CCC(C)=O [2-butanone]
[4]; [7]
  area of the bioproduct peak, NASH versus healthy hepatocytes: the area under the peak for healthy is larger than for NASH
  production of bioproduct, NASH versus healthy hepatocytes: Healthy hepatocytes showed higher production of 2-butanone at 6 hours
[5]; hepatocytes exposed to nonanal and 2-butanol, 50, 10, 2 and 0 ng/μL
  level of bioproduct over time in media with hepatocytes: a spike and subsequent decrease

## CC(=O)C(C)O (centres unmarked) [3-hydroxy-2-butanone]
[2]
  time after administration at which blood concentration increases: 240 min
  blood levels, CDHFD compared to ND rats: higher levels in CDHFD compared to ND rats

## O=Cc1ccccc1 [benzylaldehyde]
[1]; cancer cell line overexpressing AKR1B10, substrates added to the culture media
  conversion of the substrate to the respective bioproduct: conversion to the bioproducts in a timeframe of 6 hours

## CC(C)=CCCC(C)=CC=O [citral]
[1]; human, 6 h
  conversion of the substrate to the respective bioproduct: conversion to the bioproducts in a timeframe of 6 hours

## CCCCCC=O [hexanal]
[1]; human, 6 h
  conversion of the substrate to the respective bioproduct: conversion to the bioproducts in a timeframe of 6 hours

## CCCCCCCCC=O [nonanal]
[4]
  level of probe in presence of NASH and healthy hepatocytes compared with absence of hepatocytes: more marked reduction
[1]
  bioproduct generation after ablation of AKR1B10 or treatment of the cells with AKRs inhibitors: reduced or absent bioproduct generation
  substrate of AKR1B10 (converted to 1-nonanol / trans-2-hexenol by this enzyme): substrates for AKR1B10
[1]; human, 3 h, 30 μM
  level of nonanal in medium added to WT or AKR1B10 KO cell lines, versus medium without cells: increased reduction over 3 hours
[1]; human, 6 h
  conversion of the substrate to the respective bioproduct: conversion to the bioproducts in a timeframe of 6 hours

## CCC/C=C/C=O [trans-2-hexenal]
[1]
  bioproduct generation after ablation of AKR1B10 or treatment of the cells with AKRs inhibitors: reduced or absent bioproduct generation
  substrate of AKR1B10 (converted to 1-nonanol / trans-2-hexenol by this enzyme): substrates for AKR1B10
[1]; human, 10 μM
  production of bioproduct of trans-2-hexenal, levels in WT compared to AKR1B10 KO cells: 10 times higher
[1]; human, 3 h, 10 μM
  level of trans-2-hexenal in medium added to WT or AKR1B10 KO cell lines, versus medium without cells: increased reduction over 3 hours
[1]; human, 6 h
  conversion of the substrate to the respective bioproduct: conversion to the bioproducts in a timeframe of 6 hours
